Results published in patent publication US12559529B2, “NPY2 receptor agonists” (Boehringer Ingelheim International GmbH, priority 2019, dated 2026).

The compounds below were run against T1, Human Neuropeptide Y2 Receptor (Homo sapiens, UniProt P49146) (assay: Radioligand binding competition assay (RLB)). Conditions: Table 3; human 125I-PYY (1-36) 0.02 nM, Y2 receptor membranes; read-out: Ki.
T1 construct: purchased CHEMICON HTS066M
T1 sequence (P49146 1-381): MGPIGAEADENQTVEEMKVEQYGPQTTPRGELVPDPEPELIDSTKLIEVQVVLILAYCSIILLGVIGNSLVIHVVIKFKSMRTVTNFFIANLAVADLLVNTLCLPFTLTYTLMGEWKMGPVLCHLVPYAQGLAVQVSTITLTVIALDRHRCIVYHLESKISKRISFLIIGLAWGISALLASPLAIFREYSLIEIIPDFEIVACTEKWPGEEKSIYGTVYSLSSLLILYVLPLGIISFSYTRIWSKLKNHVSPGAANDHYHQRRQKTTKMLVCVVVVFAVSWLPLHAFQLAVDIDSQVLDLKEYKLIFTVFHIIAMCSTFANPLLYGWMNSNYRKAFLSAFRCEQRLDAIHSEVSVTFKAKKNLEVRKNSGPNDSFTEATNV
How it was run: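 Peptide dilutions made in pH 7.4 HEPES assay buffer with 0.2% ovalbumin; human Y2 receptor membranes added at 0.5 μg protein/well; plates shaken 2 h at room temperature; reaction stopped by vacuum filtration onto PEI-treated GF/C filters with ice-cold high-salt washes; radioactivity counted by scintillation.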
Work on `CC(C)CC(=O)N[C@@H](C)C(=O)N1CCC[C@H]1C(=O)N[C@@H](CCC(=O)O)C(=O)N[C@@H](CCCCNC(=O)COCCOCCNC(=O)COCCOCCNC(=O)CC[C@H](NC(=O)CCCCCCCCCCCCCCCCC(=O)O)C(=O)O)C(=O)N1CCC[C@H]1C(=O)N[C@@H](CCC(=O)O)C(=O)N[C@@H](CCC(=O)O)C(=O)N[C@@H](CC(=O)O)C(=O)N[C@@H](C)C(=O)N[C@@H](C)C(=O)N1CCC[C@H]1C(=O)N[C@@H](C)C(=O)N[C@@H](CCC(=O)O)C(=O)N[C@@H](CC(C)C)C(=O)N[C@@H](CCC(N)=O)C(=O)N[C@@H](CCCNC(=N)N)C(=O)N[C@@H](Cc1ccc(O)cc1)C(=O)N[C@@H](Cc1ccc(O)cc1)C(=O)N[C@H](C(=O)N[C@@H](CO)C(=O)N[C@@H](CC(C)C)C(=O)N[C@@H](CCCNC(=N)N)C(=O)N[C@@H](Cc1c[nH]cn1)C(=O)N[C@@H](Cc1ccc(O)cc1)C(=O)N[C@@H](Cc1ccc(O)cc1)C(=O)N[C@@H](CC(N)=O)C(=O)N[C@@H](Cc1c[nH]c2ccccc12)C(=O)N[C@@H](CC(C)C)C(=O)N[C@H](C(=O)N[C@@H](CCCNC(=N)N)C(=O)N[C@@H](CCC(N)=O)C(=O)N[C@@H](CCCNC(=N)N)C(=O)N[C@@H](Cc1ccc(O)cc1)C(N)=O)[C@@H](C)O)C(C)C` [Compound 192, N{alpha-4}-(3-methylbutanoyl)-N{epsilon-7}-[2-(2-{2-[2-(2-{2-[(4S)-4-carboxy-4-(17-carboxyheptadecanamido)butanamido]ethoxy}ethoxy)acetamido]ethoxy}ethoxy)acetamido]-[4A,7K,9E,13A,15A,18Q,22V,28Y,30W,31L]hPYY (4-36)] yielded a Ki of 1.65 nM. `CC(C)CC(=O)N[C@@H](C)C(=O)N1CCC[C@H]1C(=O)N[C@@H](C)C(=O)N[C@@H](CCCCNC(=O)COCCOCCNC(=O)COCCOCCNC(=O)CC[C@H](NC(=O)CCCCCCCCCCCCCCCCC(=O)O)C(=O)O)C(=O)N1CCC[C@H]1C(=O)N1CCC[C@H]1C(=O)N[C@@H](CCC(=O)O)C(=O)N[C@@H](CC(=O)O)C(=O)N[C@@H](C)C(=O)N[C@@H](CCC(=O)O)C(=O)N1CCC[C@H]1C(=O)N[C@@H](CCC(=O)O)C(=O)N[C@@H](CCC(=O)O)C(=O)N[C@@H](CC(C)C)C(=O)N[C@@H](CCC(N)=O)C(=O)N[C@@H](CCCNC(=N)N)C(=O)N[C@@H](Cc1ccc(O)cc1)C(=O)N[C@@H](Cc1ccc(O)cc1)C(=O)N[C@H](C(=O)N[C@@H](CO)C(=O)N[C@@H](CC(C)C)C(=O)N[C@@H](CCCNC(=N)N)C(=O)N[C@@H](Cc1c[nH]cn1)C(=O)N[C@@H](Cc1ccc(O)cc1)C(=O)N[C@@H](Cc1ccc(O)cc1)C(=O)N[C@@H](CC(N)=O)C(=O)N[C@@H](Cc1c[nH]c2ccccc12)C(=O)N[C@@H](CC(C)C)C(=O)N[C@H](C(=O)N[C@@H](CCCNC(=N)N)C(=O)N[C@@H](CCC(N)=O)C(=O)N[C@@H](CCCNC(=N)N)C(=O)N[C@@H](Cc1ccc(O)cc1)C(N)=O)[C@@H](C)O)C(C)C` [Compound 196, N{alpha-4}-(3-methylbutanoyl)-N{epsilon-7}-[2-(2-{2-[2-(2-{2-[(4S)-4-carboxy-4-(17-carboxyheptadecanamido)butanamido]ethoxy}ethoxy)acetamido]ethoxy}ethoxy)acetamido]-[4A,6A,7K,9P,13E,18Q,22V,28Y,30W,31L]hPYY (4-36)] showed a Ki of 0.98 nM. `CC(C)CC(=O)N[C@@H](C)C(=O)N1CCC[C@H]1C(=O)N[C@@H](C)C(=O)N[C@@H](CCCCNC(=O)COCCOCCNC(=O)COCCOCCNC(=O)CC[C@H](NC(=O)CCCCCCCCCCCCCCCCC(=O)O)C(=O)O)C(=O)N1CCC[C@H]1C(=O)N[C@@H](CCC(=O)O)C(=O)N[C@@H](C)C(=O)N[C@@H](CC(=O)O)C(=O)N[C@@H](C)C(=O)N[C@@H](CO)C(=O)N1CCC[C@H]1C(=O)N[C@@H](CCC(=O)O)C(=O)N[C@@H](CCC(=O)O)C(=O)N[C@@H](CC(C)C)C(=O)N[C@@H](CCC(N)=O)C(=O)N[C@@H](CCCNC(=N)N)C(=O)N[C@@H](Cc1ccc(O)cc1)C(=O)N[C@@H](Cc1ccc(O)cc1)C(=O)N[C@H](C(=O)N[C@@H](CCC(=O)O)C(=O)N[C@@H](CC(C)C)C(=O)N[C@@H](CCCNC(=N)N)C(=O)N[C@@H](Cc1c[nH]cn1)C(=O)N[C@@H](Cc1ccc(O)cc1)C(=O)N[C@@H](Cc1ccc(O)cc1)C(=O)N[C@@H](CC(N)=O)C(=O)N[C@@H](Cc1c[nH]c2ccccc12)C(=O)N[C@@H](CC(C)C)C(=O)N[C@H](C(=O)N[C@@H](CCCNC(=N)N)C(=O)N[C@@H](CCC(N)=O)C(=O)N[C@@H](CCCNC(=N)N)C(=O)N[C@@H](Cc1ccc(O)cc1)C(N)=O)[C@@H](C)O)C(C)C` [Compound 197, N{alpha-4}-(3-methylbutanoyl)-N{epsilon-7}-[2-(2-{2-[2-(2-{2-[(4S)-4-carboxy-4-(17-carboxyheptadecanamido)butanamido]ethoxy}ethoxy)acetamido]ethoxy}ethoxy)acetamido]-[4A,6A,7K,9E,10A,18Q,22V,23E,28Y,30W,31L]hPYY (4-36)] was tested, and the Ki was 0.87 nM. `CC(C)CC(=O)N[C@@H](C)C(=O)N1CCC[C@H]1C(=O)N[C@@H](CCC(=O)O)C(=O)N[C@@H](CCCCNC(=O)COCCOCCNC(=O)COCCOCCNC(=O)CC[C@H](NC(=O)CCCCCCCCCCCCCCCCC(=O)O)C(=O)O)C(=O)N1CCC[C@H]1C(=O)N[C@@H](CCC(=O)O)C(=O)N[C@@H](CCC(=O)O)C(=O)N[C@@H](CC(=O)O)C(=O)N[C@@H](C)C(=O)N[C@@H](CCC(=O)O)C(=O)N1CCC[C@H]1C(=O)N[C@@H](CCC(=O)O)C(=O)N[C@@H](CCC(=O)O)C(=O)N[C@H](C(=O)N[C@@H](CCC(N)=O)C(=O)N[C@@H](CCCNC(=N)N)C(=O)N[C@@H](Cc1ccc(O)cc1)C(=O)N[C@@H](Cc1ccc(O)cc1)C(=O)N[C@H](C(=O)N[C@@H](CO)C(=O)N[C@@H](CC(C)C)C(=O)N[C@@H](CCCNC(=N)N)C(=O)N[C@@H](Cc1c[nH]cn1)C(=O)N[C@@H](Cc1ccc(O)cc1)C(=O)N[C@@H](Cc1ccc(O)cc1)C(=O)N[C@@H](CC(N)=O)C(=O)N[C@@H](Cc1c[nH]c2ccccc12)C(=O)N[C@@H](CC(C)C)C(=O)N[C@H](C(=O)N[C@@H](CCCNC(=N)N)C(=O)N[C@@H](CCC(N)=O)C(=O)N[C@@H](CCCNC(=N)N)C(=O)N[C@@H](Cc1ccc(O)cc1)C(N)=O)[C@@H](C)O)C(C)C)[C@@H](C)O` [Compound 199, N{alpha-4}-(3-methylbutanoyl)-N{epsilon-7}-[2-(2-{2-[2-(2-{2-[(4S)-4-carboxy-4-(17-carboxyheptadecanamido)butanamido]ethoxy}ethoxy)acetamido]ethoxy}ethoxy)acetamido]-[4A,7K,9E,13E,17T,18Q,22V,28Y,30W,31L]hPYY (4-36)] gave a Ki of 5.69 nM.
